Test results: US8551984B2, “Aminopyrimidines as SYK inhibitors” (Merck Sharp & Dohme Corp., priority 2009, dated 2013)

Target: recombinant human SYK (GST-hSYK fusion protein) (Homo sapiens, UniProt P43405)
Assay: biochemical
[1] = rhSYK Activity (IC50), recombinant human GST-SYK 5 pM, ATP 25 μM, biotinylated substrate peptide 250 nM, HTRF, 10-dose titration

From the text: Homogeneous Time-Resolved Fluorescence (HTRF) Assay for the Recombinant Human SYK Enzyme:

## Cc1cc(Nc2nccc(C(F)(F)F)n2)cc(-c2cnc(C3(O)CCCN(C(=O)c4ccc(O)cn4)CC3)s2)c1 (stereo not shown) [Example 54D-85]
rhSYK Activity, Table 54D
  IC50: < 100 nM

## Cc1cc(Nc2nccc(C(F)(F)F)n2)cc(-c2cnc(CN3CCCC(C)(O)C3)s2)c1 (stereo not shown) [Example 88B-1]
[1]
  IC50: < 100 nM

## Cc1cc(Nc2nccc(OC(C)CN3CC(C)OC3=O)n2)cc(-c2cnc(C3(O)CCC3)s2)c1 (stereo not shown) [Example 108A-27]
rhSYK Activity, Table 108A
  IC50: < 100 nM

## COC(=O)C1CCC(O)(c2ncc(-c3cc(C)cc(Nc4nccc(C)n4)c3)s2)CC1C (stereo not shown) [Example 113A-11]
rhSYK Activity, Table 113A
  IC50: < 100 nM

## COC(=O)C(O)(CC(=O)N1CCCC(O)(c2ncc(-c3cc(C)cc(Nc4nccc(C(F)(F)F)n4)c3)s2)CC1)C(F)(F)F (stereo not shown) [Example 54D-112]
rhSYK Activity, Table 54D
  IC50: < 100 nM

## Cc1cc(Nc2ncc(F)cn2)cc(-c2cnc([C@]3(O)CC[C@](C)(C(=O)O)CC3)s2)c1 [Example 33A-4]
rhSYK Activity, Table 33-A
  IC50: < 100 nM

## Cc1cc(Nc2nccc(C(F)(F)F)n2)cc(-c2cnc([C@]3(O)CC[C@@H](NC(=O)CS(C)(=O)=O)CC3)s2)c1 [Example 54E-22]
rhSYK Activity, Table 54E
  IC50: < 100 nM

## Cc1cc(Nc2nccc(C(F)(F)F)n2)cc(-c2cnc(C(=O)N3CCC[S+]([O-])CC3)s2)c1 (stereo not shown) [Example 87B-13]
[1]
  IC50: < 100 nM

## Cc1cc(Nc2nccc(C(F)(F)F)n2)cc(-c2cnc(C3(O)CCN(c4ncccc4C(=O)O)CC3)s2)c1 [Example 33C-15]
rhSYK Activity, Table 33C
  IC50: < 100 nM

## Cc1cc(Nc2nccc(C(F)(F)F)n2)cc(-c2cnc(CNCCOCCO)s2)c1 [Example 88A-42]
[1]
  IC50: < 100 nM

## Cc1cc(Nc2nccc(OCc3ccccn3)n2)cc(-c2cnc(C3(O)CCC3)s2)c1 [Example 94A-3]
[1]
  IC50: < 100 nM

## Cc1cc(Nc2nccc(C(F)(F)F)n2)cc(-c2cnc(C3(O)CCN(C(=O)c4ccccn4)CC3)s2)c1 [Example 54A-9]
RHSYK Activity, Table 54A
  IC50: < 100 nM

## Cc1cc(Nc2nccc(C(F)(F)F)n2)cc(-c2cnc(C3(O)CCN(C(=O)CC#N)CC3)s2)c1 [Example 54A-6]
RHSYK Activity, Table 54A
  IC50: < 100 nM

## Cc1cc(Nc2ncc(F)c(C3CC3)n2)cc(-c2cnc([C@@]3(O)CC[C@H](C(=O)O)C(C)(C)C3)s2)c1 [Example 113A-58]
rhSYK Activity, Table 113A
  IC50: < 100 nM

## Cc1cc(Nc2nccc(C(F)(F)F)n2)cc(-c2cnc(C3(O)CCN(C(=O)CO)CC3)s2)c1 [Example 54A-5]
RHSYK Activity, Table 54A
  IC50: < 100 nM

## Cc1cc(Nc2nccc(C(F)(F)F)n2)cc(-c2cnc(C(=O)NCC(C)O)s2)c1 (stereo not shown) [Example 87A-7]
[1]
  IC50: < 100 nM

## Cc1cc(Nc2nccc(OCC#Cc3cncnc3)n2)cc(-c2cnc(C3(O)CCC3)s2)c1 [Example 108A-22]
rhSYK Activity, Table 108A
  IC50: 100 to 1000 nM

## COC(=O)[C@H]1CC[C@](O)(c2ncc(-c3cc(C)cc(Nc4nccc(C(N)=O)n4)c3)s2)CC1(C)C [Example 101-7]
[1]
  IC50: < 100 nM

## Cc1cc(Nc2ncc(F)c(C)n2)cc(-c2cnc([C@]3(O)CC[C@@H](O)CC3)s2)c1 [8A-1]
rhSYK Activity, Table 8A
  IC50: < 100 nM

## Cc1cc(Nc2nccc(C(C)C)n2)cc(-c2cnc(C3(O)CCCNCC3)s2)c1 (stereo not shown) [Example 54D-1]
rhSYK Activity, Table 54D
  IC50: < 100 nM

## Cc1cc(Nc2nccc(C(F)(F)F)n2)cc(-c2cnc(C3(O)CCCN(C(=O)C(C)(CO)CO)CC3)s2)c1 (stereo not shown) [Example 54D-78]
rhSYK Activity, Table 54D
  IC50: < 100 nM

## COC(=O)C1CCC(O)(c2ncc(-c3cc(Cl)cc(Nc4nccc(C(F)(F)F)n4)c3)s2)CC1(C)C (stereo not shown) [Example 113A-63]
rhSYK Activity, Table 113A
  IC50: 100 to 1000 nM

## Cc1cc(Nc2nccc(C(F)(F)F)n2)cc(-c2cnc(C3(O)CCCN(C(=O)C4CCCCO4)CC3)s2)c1 (stereo not shown) [Example 54D-65]
rhSYK Activity, Table 54D
  IC50: < 100 nM

## Cc1cc(Nc2nccc(C(F)(F)F)n2)cc(-c2cnc(C3(O)C4CCCC3CC(C(=O)O)C4)s2)c1 (stereo not shown) [Example 33C-3]
rhSYK Activity, Table 33C
  IC50: < 100 nM

## Cc1cc(Nc2nccc(C(F)(F)F)n2)cc(-c2cnc(C3CCCCC3)s2)c1 [Example 130]
[1]
  IC50: 100 to 1000 nM

## CC(O)(c1ncc(-c2cc(NCC(F)(F)F)cc(Nc3nccc(C(F)(F)F)n3)c2)s1)C(F)(F)F (stereo not shown) [Example 27-2]
rhSYK Activity, Table 27
  IC50: < 100 nM

## Cc1cc(Nc2nccc(OC3CCNCC3)n2)cc(-c2cnc(C3(O)CCC3)s2)c1 [Example 94A-33]
[1]
  IC50: < 100 nM

## CCc1ccnc(Nc2cc(C)cc(-c3cnc([C@@]4(O)CC[C@H](C(=O)OC)C(C)(C)C4)s3)c2)n1 [Example 113A-53]
rhSYK Activity, Table 113A
  IC50: < 100 nM

## COc1nc(Nc2cc(C)cc(-c3cnc(C4(O)CCC(C(=O)OC(C)(C)C)CC4)s3)c2)ncc1Cl (stereo not shown) [116A-14]
rhSYK Activity, Table 116A
  IC50: 100 to 1000 nM

## COC/C=C/c1ccnc(Nc2cc(C)cc(-c3cnc(C4(O)CCC(C(=O)OC(C)(C)C)CC4)s3)c2)n1 (stereo not shown) [Example 104-1]
[1]
  IC50: 100 to 1000 nM

## Cc1cc(Nc2nccc(C(F)(F)F)n2)cc(-c2cnc(C(=O)NCc3cncn3C)s2)c1 [Example 87A-14]
[1]
  IC50: < 100 nM

## Cc1cc(Nc2nccc(C3CCCCC3)n2)cc(-c2cnc(C3(O)CCC3)s2)c1 [Example 107-2]
[1]
  IC50: < 100 nM

## Cc1cc(Nc2nccc(C(F)(F)F)n2)cc(-c2cnc(CNC3CCNC3=O)s2)c1 (stereo not shown) [Example 88A-35]
[1]
  IC50: < 100 nM

## [2H]C([2H])([2H])c1cc(Nc2nccc(C(F)(F)F)n2)cc(-c2cnc([C@]3(O)CC[C@H](C(=O)O)CC3)s2)c1 [Example 43-1]
rhSYK Activity, table after Example 43
  IC50: < 100 nM

## Cc1cc(Nc2nccc(C(F)(F)F)n2)cc(-c2cnc(C3(O)CCCN(C(=O)CCNC(N)=O)CC3)s2)c1 (stereo not shown) [Example 54D-76]
rhSYK Activity, Table 54D
  IC50: < 100 nM

## Cc1cc(Nc2nccc(C(F)(F)F)n2)cc(-c2cnc(C3(O)CCCN(C(=O)OC(C)(C)C)CC3)s2)c1 (single isomer, unassigned) [45-1]
rhSYK Activity, Table 45
  IC50: 100 to 1000 nM

## CC(=O)NC1(c2ncc(-c3cc(C)cc(Nc4nccc(C(F)(F)F)n4)c3)s2)COC1 [66-1]
hSYK Activity, table after Example 66
  IC50: < 100 nM

## CCOC(=O)C1[C@H]2CC(O)(c3ncc(-c4cc(C)cc(Nc5nccc(C(F)(F)F)n5)c4)s3)C[C@@H]12 (stereo partly shown) [Example 33C-11]
rhSYK Activity, Table 33C
  IC50: < 100 nM

## Cc1cc(Nc2nccc(C(F)(F)F)n2)cc(-c2cnc(C3CCC4(CC3)OCCO4)s2)c1 [N-{3-[2-(1,4-diaxaspiro[4.5]dec-8-yl)-1,3-thiazol-5-yl]-5-methylphenyl}-4-(trifluoromethyl)pyrimidin-2-amine]
Syk IC50, HTRF, recombinant human GST-SYK
  IC50: 297 nM

## Cc1cc(Nc2nccc(C(F)(F)F)n2)cc(-c2cnc(C3(O)CCCN(C(=O)C4CCCO4)CC3)s2)c1 (stereo not shown) [Example 54D-40]
rhSYK Activity, Table 54D
  IC50: < 100 nM

## Cc1cc(Nc2nccc(C3CCC3)n2)cc(-c2cnc([C@@]3(O)CC[C@H](C(=O)O)C(C)(C)C3)s2)c1 [116A-31]
rhSYK Activity, Table 116A
  IC50: < 100 nM

## Cc1cc(Nc2nccc(C(F)(F)F)n2)cc(-c2cnc(C3(O)CCCN(C(=O)CC(=O)O)CC3)s2)c1 (stereo not shown) [Example 54D-24]
rhSYK Activity, Table 54D
  IC50: < 100 nM

## Cc1cc(Nc2nccc(C(F)(F)F)n2)cc(-c2cnc(CNC3CNC(=O)C3)s2)c1 (stereo not shown) [Example 88A-36]
[1]
  IC50: < 100 nM

## Cc1cc(Nc2nccc(C(F)(F)F)n2)cc(-c2cnc(C3(O)CCN(C(N)=O)C3)s2)c1 (stereo not shown) [54B-2]
rhSYK Activity, Table 54B
  IC50: < 100 nM

## Cc1cc(Nc2nccc(C(F)(F)F)n2)cc(-c2cnc(CN3CC[S+]([O-])CC3)s2)c1 [Example 88B-3]
[1]
  IC50: < 100 nM

## O=C(NCCO)[C@H]1CC[C@H](c2ncc(-c3cccc(Nc4nccc(C(F)(F)F)n4)c3)s2)CC1 [Example 21-12]
rhSYK Activity, Table 21
  IC50: < 100 nM

## Cc1cc(Nc2nccc(C3CC3)n2)cc(-c2cnc([C@@]3(O)CC[C@H](C(=O)O)[C@H](C)C3)s2)c1 [Example 113A-21]
rhSYK Activity, Table 113A
  IC50: < 100 nM

## Cc1cc(Nc2nccc(C(F)(F)F)n2)cc(-c2cnc(C3(O)CCN(C(=O)C4CCOC4)CC3)s2)c1 (stereo not shown) [Example 54A-32]
RHSYK Activity, Table 54A
  IC50: < 100 nM

## Cc1cc(Nc2nccc(C(F)(F)F)n2)cc(-c2cnc(C3(O)CCC(C)(C(=O)O)CC3)s2)c1 (stereo not shown) [Example 33A-13]
rhSYK Activity, Table 33-A
  IC50: < 100 nM
